The text below walks through data of US20260376293A1, “METHODS FOR STUDYING GPR158 PHARMACOLOGY AND IDENTIFICATION OF ITS LIGANDS” (UNIVERSITY OF FLORIDA RESEARCH FOUNDATION, INCORPORATED, priority 2022, published 2026).

This test relates to layer II-III pyramidal neurons of GPR158 KO mice. In words: Whole cell recordings, layer II-III neurons, GPR158 KO mice. The class given is cell-based, mouse. The conditions noted are these: for rheobase current / number of action potentials fired / resting membrane potential: 1 mM, GPR158 KO; for number of action potentials fired: 200 pA current ramp; for resting membrane potential: layer II-III. The protocol:
FIGS. 14A-14H. Effect of glycine on neuronal excitability. A) Schematic of the electrophysiological recordings in slice preparation targeting mPFC neurons of layer II-III. Experiments were conducted with a cocktail of synaptic blockers: picrotoxin (100 μM) (blockade of GABAA receptor chloride channels), strychnine (1 μM) (antagonist of glycine and acetylcholine ionotropic receptors), CNQX (20 μM) (AMPA receptors antagonist), and APV (50 μM) (NMDAR antagonist). B) Representative traces of voltage responses to a 200 pA current ramp injection under control conditions and after bath application of glycine (1 mM) in WT mice. C) Quantification of changes in excitability by number of action potentials fired in response to 200 pA current ramp (n=8 neurons from 5 mice). Nonparametric t-test; Wilcoxon test, **p<0.01. D) Quantification of changes in excitability by rheobase current under control condition and glycine application (n=8 neurons from 5 mice). Nonparametric t-test; Wilcoxon test, **p<0.01. E) Representative traces of voltage responses to a 200 pA current ramp injection obtained from layer II-III pyramidal neurons in GPR158 KO mice under control conditions and during bath application of glycine (1 mM). F) Quantification of changes in excitability by number of action potentials fired in response to 200 pA current ramp (n=4 neurons/3 mice). Nonparametric t-test; Wilcoxon test, ns=p>0.05. G) Quantification of changes in excitability by rheobase current under control condition and glycine application (n=4 neurons/3 mice). Nonparametric t-test; Wilcoxon test, ns=p>0.05. H) Schematic representation of the proposed mechanism of glycine effects on mGlyR. In 14C, 14D, 14F, and 14G, solid circles (Ctrl), circles with no fill (Glycine), columns with no fill (Ctrl), and columns with dotted fill (Glycine).
FIGS. 15A-15H. Effect of glycine and taurine on excitability of layer V neurons and membrane properties of layer II/III neurons in wild type and GPR158 knockout mice. A) Representative traces of voltage responses to a 200 pA current ramp injection obtained from layer V pyramidal neurons in WT mice under control conditions and during bath application of glycine (1 mM). B) Quantification of glycine effects on neuronal excitability by number of action potentials fired in response to 200 pA current ramp under control condition and glycine application (n=4 neurons/3 mice). Nonparametric t-test; Wilcoxon test, ns=p>0.05. C) Quantification of glycine effects on neuronal excitability by rheobase current under control condition and glycine application (n=4 neurons/3 mice). Nonparametric t-test; Wilcoxon test, ns=p>0.05. D) Resting membrane potential of layer V pyramidal neurons in WT mice under control conditions and during bath application of glycine (n=4 neurons/3 mice). Nonparametric t-test; Wilcoxon test, ns=p>0.05. E) Resting membrane potential of layer II-III pyramidal neurons in WT mice under control conditions and during bath application of glycine (n=6 neurons/4 mice). Nonparametric t-test; Wilcoxon test, ns=p>0.05. F) Resting membrane potential of layer II-III pyramidal neurons in GPR158 KO mice under control conditions and during bath application of glycine (n=4 neurons/3 mice). Nonparametric t-test; Wilcoxon test, ns=p>0.05. G) Resting membrane potential under control conditions and during bath application of taurine (n=9 neurons/5 mice). Paired t-test, p=0.4809. H) Resting membrane potential under control conditions and during bath application of taurine (n=5 neurons/4 mice) Nonparametric t-test; Wilcoxon test, ns=p>0.05, p>0.9999. In FIGS. 15B, 15C, 15D, 15E, and 15F, solid circles (Ctrl), circles with angled-line fill (Glycine), columns with no fill (Ctrl), columns with angled-line fill (Glycine). In 15G and 15H, solid circles (Ctrl), circles with no fill (Taurine), columns with no fill (Ctrl), columns with dotted fill (Taurine).
FIGS. 16A-16F Effect of taurine on neuronal excitability of layer II/III neurons. […]

Take `NCCS(=O)(=O)O` [taurine, 2-aminoethanesulfonic acid]: the rheobase current result is “ns”, the “number of action potentials fired” value is “ns” and the resting membrane potential entry is recorded as “ns”.
With `NCC(=O)O` [glycine], the rheobase current result is “ns”, the “number of action potentials fired” value is “ns” and the resting membrane potential result is “ns”. The “excitability of layer II-III neurons” value (Gpr158 KO, glycine 1 mM) is listed as “failed to alter excitability”.
